Experimental data from patent publication US7723564B2, “Compositions and methods for modulation of KSR1 and KSR2 interactions” (Board of Regents of the University of Nebraska, priority 2006, dated 2010).

Assays:
AMPK-KSR1 interaction = experiment: Coimmunoprecipitation of AMPK with KSR1; assay type: cell-based; settings: AMPK expressed in cells with KSR1; FIG. 22
From the text: (§1) FIG. 22. is a series of western blots showing that AMPK coimmunopreciptates with KSR1 and KSR2.
(§2) AMP activated protein kinase (AMPK) is a critical regulator of catabolism in cells, promoting the synthesis of ATP and inhibiting the anabolic effects of other hormones to promote […]. AMPK is an indirect target of the widely prescribed anti-diabetic drug metformin. […] When AMPK is expressed in cells with either KSR or KSR2, AMPK is found to precipitate with either protein. AMPK is not precipitated in the absence of KSR proteins.

AMPK-KSR2 interaction = experiment: Coimmunoprecipitation of AMPK with KSR2; assay type: cell-based; settings: AMPK expressed in cells with KSR2; FIG. 22
From the text: as §1, §2

CC[C@H]1/C=C/C=C/C[C@@H](C)[C@H](O)[C@@](C)(O)C(=O)[C@@H](C)[C@H](O)[C@@H](C)C(=O)[C@@H](C)[C@H](O)[C@@H](C)/C=C/C(=O)O[C@@H]2[C@H](C)[C@H](CC1)O[C@]1(CC[C@H](C)[C@H](C[C@@H](C)O)O1)[C@H]2C [oligomycin]
Effect on interaction of AMPK with KSR1 (AMPK-KSR1 interaction): does not alter
Effect on interaction of AMPK with KSR2 (AMPK-KSR2 interaction): does not alter
